Data set [1] concerns the target T1, Relaxin receptor 1 (Homo sapiens) (UniProt Q9HBX9).
T1 sequence (whole entry): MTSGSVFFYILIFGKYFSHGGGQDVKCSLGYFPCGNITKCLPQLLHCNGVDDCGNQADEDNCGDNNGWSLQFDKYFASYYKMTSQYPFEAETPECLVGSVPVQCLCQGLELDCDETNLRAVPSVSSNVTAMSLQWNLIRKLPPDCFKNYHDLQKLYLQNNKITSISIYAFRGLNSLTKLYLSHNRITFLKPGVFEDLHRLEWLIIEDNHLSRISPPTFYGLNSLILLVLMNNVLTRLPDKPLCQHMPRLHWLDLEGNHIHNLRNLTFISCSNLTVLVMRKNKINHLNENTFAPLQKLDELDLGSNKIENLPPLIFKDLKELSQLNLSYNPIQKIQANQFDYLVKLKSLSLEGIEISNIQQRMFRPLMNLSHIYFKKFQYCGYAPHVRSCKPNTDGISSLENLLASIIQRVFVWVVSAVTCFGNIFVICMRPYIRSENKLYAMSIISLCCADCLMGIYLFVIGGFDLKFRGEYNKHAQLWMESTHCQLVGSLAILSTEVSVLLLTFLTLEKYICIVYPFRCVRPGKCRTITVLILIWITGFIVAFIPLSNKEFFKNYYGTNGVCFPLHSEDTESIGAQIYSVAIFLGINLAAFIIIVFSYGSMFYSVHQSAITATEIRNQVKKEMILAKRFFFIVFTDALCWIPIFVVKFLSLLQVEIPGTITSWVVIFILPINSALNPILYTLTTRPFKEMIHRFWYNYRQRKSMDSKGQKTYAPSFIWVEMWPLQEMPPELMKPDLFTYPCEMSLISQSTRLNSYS
In words: Selectivity ratio of EC50 for agonist activity at RXFP1 endogenously expressed in human OVCAR-5 cells in presence of 2 % HSA to EC50 for agonist activity at RXFP1 endogenously expressed in human OVCAR-5 cells in absence of HSA. It is filed as cell-based.

The nature of data set [2]: Stability in human blood assessed as parent compound at 5 uM remaining after 4 hrs. It is filed as ADME, tissue-based. As to conditions: read-out: Stabilty.
A short description of data set [3]: Half life in Sprague-Dawley rat at 1 mg/kg, iv measured upto 72 hrs by LC-HRMS analysis. Format: ADME, organism-based. As to conditions: in vivo.
In data set [4] the target is T2, Relaxin receptor 1 (Homo sapiens, UniProt Q9HBX9).
T2 sequence (Q9HBX9 whole entry): T1 sequence (whole entry)
In words: Agonist activity at RXFP1 endogenously expressed in human OVCAR-5 cells assessed as increase in IBMX-induced cAMP accumulation pretreated with IBMX for 40 mins followed by compound addition and measured after 30 mins in presence of 2 % HSA by HTRF assay. It is filed as functional, cell-based. In general terms: Changes in cAMP serve as a functional read-out for many G protein-coupled receptors.

Data set [5] has as its target T2, Relaxin receptor 1. Put plainly: Agonist activity at RXFP1 endogenously expressed in human OVCAR-5 cells assessed as increase in IBMX-induced cAMP accumulation pretreated with IBMX for 40 mins followed by compound addition and measured after 30 mins by HTRF assay. Format: functional, cell-based.
The nature of data set [6]: Bioavailability in Sprague-Dawley rat at 3 mg/kg, sc measured upto 72 hrs by LC-HRMS analysis. It is filed as ADME, organism-based. As to conditions: in vivo.
Data set [7] can be described thus: Stability in rat blood assessed as parent compound at 5 uM remaining after 4 hrs. Format: ADME, tissue-based. As to conditions: read-out: Stabilty.
Data set [8] has as its target T1, Relaxin receptor 1 (Homo sapiens). In words: Agonist activity at RXFP1 endogenously expressed in human OVCAR-5 cells assessed as increase in IBMX-induced cAMP accumulation pretreated with IBMX for 40 mins followed by compound addition and measured after 30 mins in presence of 2 % HSA by HTRF assay relative to control. It is filed as functional, cell-based. The following applies: filed as agonist.

Data set [9] shares this target. In words: Agonist activity at RXFP1 endogenously expressed in human OVCAR-5 cells assessed as increase in IBMX-induced cAMP accumulation pretreated with IBMX for 40 mins followed by compound addition and measured after 30 mins by HTRF assay relative to relaxin. It is filed as functional, cell-based. The following applies: filed as agonist.
Data set [10] is described as follows: Positive chronotropic activity in pithed Sprague-Dawley rat assessed as increase in heart rate at 20 to 1000 mg/kg, iv administered as bolus dose measured after 60 mins post dose. It is filed as ADME, organism-based. As to conditions: in vivo, 1 h, dose 20-1000 mg/kg.
Data set [11] concerns the target T3, Relaxin receptor 1 (Rattus norvegicus, UniProt Q6R6I6).
T3 sequence (Q6R6I6 whole entry): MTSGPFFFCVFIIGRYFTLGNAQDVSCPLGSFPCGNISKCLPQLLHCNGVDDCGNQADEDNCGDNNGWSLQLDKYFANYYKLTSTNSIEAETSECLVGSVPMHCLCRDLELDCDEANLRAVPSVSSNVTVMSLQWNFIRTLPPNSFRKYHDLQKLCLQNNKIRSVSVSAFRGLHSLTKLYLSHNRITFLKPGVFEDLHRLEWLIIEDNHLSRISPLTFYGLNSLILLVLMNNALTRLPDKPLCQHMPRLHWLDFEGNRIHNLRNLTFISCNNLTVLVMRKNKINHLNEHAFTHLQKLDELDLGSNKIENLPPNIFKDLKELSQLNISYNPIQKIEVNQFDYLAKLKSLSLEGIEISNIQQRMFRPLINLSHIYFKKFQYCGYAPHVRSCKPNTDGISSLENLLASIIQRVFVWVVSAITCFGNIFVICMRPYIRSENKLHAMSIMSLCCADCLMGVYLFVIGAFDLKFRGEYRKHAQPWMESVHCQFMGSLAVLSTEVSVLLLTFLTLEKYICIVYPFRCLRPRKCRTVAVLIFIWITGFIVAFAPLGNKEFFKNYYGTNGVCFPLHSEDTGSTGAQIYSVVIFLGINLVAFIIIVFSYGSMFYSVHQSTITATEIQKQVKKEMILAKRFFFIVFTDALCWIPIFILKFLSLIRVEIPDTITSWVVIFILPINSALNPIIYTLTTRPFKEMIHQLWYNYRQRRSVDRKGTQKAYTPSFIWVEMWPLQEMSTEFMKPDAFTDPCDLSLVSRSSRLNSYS
In words: Agonist activity at rat RXFP1 expressed in human […] cells assessed as increase in IBMX-induced cAMP accumulation pretreated with IBMX for 40 mins followed by compound addition and measured after 30 mins by HTRF assay. It is filed as cell-based, HEK293.

The target in data set [12] is T4, Relaxin receptor 1 (Rattus norvegicus) (UniProt Q6R6I6).
T4 sequence (whole entry): T3 sequence (Q6R6I6 whole entry)
Put plainly: Agonist activity at rat RXFP1 expressed in human […] cells assessed as increase in IBMX-induced cAMP accumulation pretreated with IBMX for 40 mins followed by compound addition and measured after 30 mins by HTRF assay relative to control. As to conditions: HEK293, filed as agonist. Format: cell-based.

Data set [13] deals with T4, Relaxin receptor 1 (Rattus norvegicus). Put plainly: Selectivity index, ratio of EC50 for agonist activity at rat RXFP1 expressed in human […] cells in presence of RSA by HTRF assay to EC50 for EC50 for agonist activity at rat RXFP1 expressed in human […] cells in absence of RSA by HTRF assay. It is filed as cell-based. As to conditions: HEK293, time 30.0 min.

A short description of data set [14]: Positive chronotropic activity in pithed Sprague-Dawley rat assessed as increase in heart rate at 1000 mg/kg, iv administered as bolus dose measured after 60 mins post dose. As to conditions: in vivo, 1 h. It is filed as ADME, organism-based.

*1 amine or outer side, *2 acyl side, *3 side chain or, on linkers, in order; H or OH if unused. Where a SMILES comes first, the peptide text is derived from it. [ ]: non-standard residue; d: D form. The star is where a group is joined. PEG11 = NCCOCCOCCOCCOCCOCCOCCOCCOCCOCCOCCOCCC(=O)O; X1 = CCCCCCCCCCCCCCCCC(=O)[C@H](CCC(N)=O)N*; β2hAla(2S) = C[C@@H](CN[*:1])C(=O)[*:2]; hLys = NCCCCC[C@H](N)C(=O)O; Nle = CCCC[C@H](N)C(=O)O; AEEA = NCCOCCOCC(=O)O

In the case of `CCCCCCCCCCCCCCCCC(=O)[C@H](CCC(N)=O)NC(=O)[C@H](CCC(=O)O)NC(=O)[C@H](CCC(=O)O)NC(=O)[C@H](CCCCN)NC(=O)COCCOCCNC(=O)COCCOCCNC(=O)COCCOCCNC(=O)[C@H](CCCCCNC(C)=O)NC(=O)[C@H](CCCCN)NC(=O)[C@H](CCCCN)NC(=O)[C@H](CCCNC(=N)N)NC(=O)[C@@H](C)CNC(=O)[C@H](CO)NC(=O)[C@H](Cc1c[nH]c2ccccc12)NC(=O)[C@@H](NC(=O)[C@H](CO)NC(=O)[C@H](CCCCCNC(C)=O)NC(=O)[C@H](CCCCN)NC(=O)[C@H](CCCC)NC(=O)[C@H](CCSC)NC(=O)CNC(=O)[C@H](CCC(=O)O)NC(=O)[C@@H](C)CNC(=O)[C@@H](C)CNC(=O)[C@@H](NC(=O)[C@H](CCCCCNC(C)=O)NC(=O)[C@H](CCCCN)NC(=O)[C@H](C)NC(=O)[C@H](CCCNC(=N)N)NC(=O)[C@@H](NC(=O)[C@H](CCCCN)NC(=O)[C@H](CCC(=O)O)NC(=O)[C@H](CCCNC(=N)N)NC(=O)[C@H](CCC(=O)O)NC(=O)CNC(=O)[C@H](CCC(=O)O)NC(=O)[C@H](CC(C)C)NC(C)=O)C(C)C)[C@@H](C)CC)[C@@H](C)O` (Ac-LEGEREKVRAK[hLys](Ac)I[β2hAla(2S)][β2hAla(2S)]EGM[Nle]K[hLys](Ac)STWS[β2hAla(2S)]RKK[hLys](Ac)[AEEA][AEEA][AEEA]KEE-X1), the Ratio EC50 in data set [1] is 87. Also, the remaining at 4 h, 5 µM in [2] was 87%; in data set [7], 79%. This compound showed a half-life in data set [3] of 5.7 h. In addition, the results for the EC50 at Relaxin receptor 1 [4] and at Relaxin receptor 1 [5] were 87 nM and 1 nM, respectively. Moreover, the bioavailability in data set [6] is 47%. Moreover, the Emax came to 96% in data set [8] and 80% in data set [9].
With `CCCCCCCCCCCCCCCCC(=O)[C@H](CCC(N)=O)NC(=O)[C@H](CCC(=O)O)NC(=O)[C@H](CCC(=O)O)NC(=O)[C@H](CCCCN)NC(=O)CCOCCOCCOCCOCCOCCOCCOCCOCCOCCOCCOCCNC(=O)[C@H](CCCCN)NC(=O)[C@H](CCCNC(=N)N)NC(=O)[C@@H](C)CNC(=O)[C@H](CO)NC(=O)[C@H](Cc1c[nH]c2ccccc12)NC(=O)[C@@H](NC(=O)[C@H](CO)NC(=O)[C@H](CCSC)NC(=O)CNC(=O)[C@H](CCC(=O)O)NC(=O)[C@@H](C)CNC(=O)[C@@H](C)CNC(=O)[C@@H](NC(=O)[C@H](CCC(N)=O)NC(=O)[C@H](C)NC(=O)[C@H](CCCNC(=N)N)NC(=O)[C@@H](NC(=O)[C@H](CCCCN)NC(=O)[C@H](CCC(=O)O)NC(=O)[C@H](CCCNC(=N)N)NC(=O)[C@H](CCC(=O)O)NC(=O)CNC(=O)[C@H](CCC(=O)O)NC(=O)[C@H](CC(C)C)NC(C)=O)C(C)C)[C@@H](C)CC)[C@@H](C)O` (Ac-LEGEREKVRAQI[β2hAla(2S)][β2hAla(2S)]EGMSTWS[β2hAla(2S)]RK[PEG11]KEE-X1), the Activity entry in data set [10] is “Dose-dependent effect”. Further, the Ratio EC50 worked out at 75 in data set [1] and 33 in [13]. The results for the EC50 on Relaxin receptor 1 [11], on Relaxin receptor 1 [4] and on Relaxin receptor 1 [5] were 0.9 nM, 270 nM and 3.6 nM, respectively. The compound further showed a half-life in [3] of 8.9 h. Further, the Emax in data set [12] turned out to be 79%; in data set [8] it was 88%; in [9] it was 88%. Further, in data set [14], the Emin is 30%.

One may read the half-life as how long it takes for the measured level to halve. Low readings indicate rapid decline, high ones slow decline. As a reminder, the EC50 is the midpoint of the concentration-response curve. The bioavailability is the share of a dose that reaches the circulation, judged against a reference dose that is usually intravenous. High values mean much systemic uptake, low ones little systemic uptake. By Emax is commonly meant the maximal effect, on the per cent scale that the assay sets.

For the origin of these results see ChEMBL document CHEMBL4732190, “Identification of Potent and Long-Acting Single-Chain Peptide Mimetics of Human Relaxin-2 for Cardiovascular Diseases” (J Med Chem, 2021).
